Assay results as given in PMC10077444, “Evaluation of In Vivo Biological Activity Profiles of Isoindole-1,3-dione Derivatives: Cytotoxicity, Toxicology, and Histopathology Studies” (ACS Omega, 2023).

Assays:
[1] = 28 day subacute toxicity study, weight change
A549 cell lines = assay: MTT proliferation assay, A549 cells; assay type: cell-based; conditions: Homo sapiens, A549 (A549-Luc) cells
Description: The A549 (human lung carcinoma) cell line was grown in a Dulbecco’s Modified Eagle Medium (DMEM) containing 10% fetal bovine serum (FBS) and 100 units/mL penicillin–100 μg/mL streptomycin and 2 mM L-glutamine for cytotoxicity experiments. Cells were maintained at 37 °C temperature conditions containing 5% CO2. When the cells covered 95–98% of the flask, they were passaged.
The 3-(4,5-dimethylthiazol-2-yl)-2,5-diphenyltetrazolium bromide (MTT) proliferation assay was performed to evaluate the cytotoxicity of the 3 and 4 compounds. Cells were seeded at a density of 5 × 10^4 cells/cm^2 and incubated at 37 °C in 95% air, 5% CO2 environments for 24 h. Substances 3 and 4 were first dissolved in DMSO, then dilutions were prepared by dispersing them in the DMEM cell growth medium. The dose intervals of substances 3 and 4 were prepared as 400, 200, 100, 50, and 25 μM. The dose intervals of substances 3 and 4 were placed on a 24-well cell culture plate and then incubated for 24 h. After incubation, the medium was removed and replaced with the MTT-containing medium. Plates were incubated for an additional 4 h at 37 °C. MTT medium was removed, and 100 μL of DMSO was added to dissolve the formazan crystals. The absorbance was determined using a plate reader at a wavelength of 540 nm. IC50 values for 24, 48, and 72 h were calculated using GraphPad Prism5 software (GraphPad, San Diego, CA).
Our group recently determined that isoindole-1,3-dione derivatives are potential tyrosine kinase enzyme inhibitors and have antiproliferative effects against some cell lines according to MTT test results. It has been confirmed that the antiproliferative effects vary according to the nitrogen (N) atom and the groups attached to the ring. In addition, some compounds are known to exert cytotoxic effects against more than one cell line. […] Benzyl derivatives of isoindole-1,3-dione 3 and 4 were synthesized according to the method used in our previous work.[9] First, the cytotoxic effects of both compounds against A549-Luc cells were examined. IC50 values of those drugs were calculated using the MTT activity assay. Cell viability of A549-Luc cells using two compounds was followed for 24, 48, and 72 h of incubation time. According to the results of these experiments, the optimum incubation period was determined as 48 h.

CD1 mice = conditions: in vivo

CC(=O)O[C@H]1C=C[C@H](OC(C)=O)[C@H]2C(=O)N(Cc3ccccc3)C(=O)[C@H]21 [compound 3]
Weight, group average ([1]; 1st dose (200 μM) female, 7d): 26.732 G
Weight, group average ([1]; 1st dose (200 μM) female, 14d): 27.624 G
Weight, group average ([1]; 1st dose (200 μM) female, 21d): 26.9 G
Weight, group average ([1]; 1st dose (200 μM) female, 28d): 26.61 G
Weight, group average ([1]; 1st dose (200 μM) female, initial): 26.516 G
Weight, group average ([1]; 1st dose (200 μM) male, 7d): 34.102 G
Weight, group average ([1]; 1st dose (200 μM) male, 14d): 35.088 G
Weight, group average ([1]; 1st dose (200 μM) male, 21d): 34.89 G
Weight, group average ([1]; 1st dose (200 μM) male, 28d): 35.932 G
Weight, group average ([1]; 1st dose (200 μM) male, initial): 33.35 G
Weight, group average ([1]; 2nd dose (100 μM) female, 7d): 27.582 G
Weight, group average ([1]; 2nd dose (100 μM) female, 14d): 27.204 G
Weight, group average ([1]; 2nd dose (100 μM) female, 21d): 27.848 G
Weight, group average ([1]; 2nd dose (100 μM) female, 28d): 28.604 G
Weight, group average ([1]; 2nd dose (100 μM) female, initial): 27.71 G
Weight, group average ([1]; 2nd dose (100 μM) male, 7d): 32.196 G
Weight, group average ([1]; 2nd dose (100 μM) male, 14d): 33.33 G
Weight, group average ([1]; 2nd dose (100 μM) male, 21d): 33.42 G
Weight, group average ([1]; 2nd dose (100 μM) male, 28d): 34.952 G
Weight, group average ([1]; 2nd dose (100 μM) male, initial): 32.388 G
Weight, group average ([1]; 3rd dose (50 μM) female, 7d): 23.104 G
Weight, group average ([1]; 3rd dose (50 μM) female, 14d): 23.97 G
Weight, group average ([1]; 3rd dose (50 μM) female, 21d): 24.27 G
Weight, group average ([1]; 3rd dose (50 μM) female, 28d): 25.092 G
Weight, group average ([1]; 3rd dose (50 μM) female, initial): 24.338 G
Weight, group average ([1]; 3rd dose (50 μM) male, 7d): 35.528 G
Weight, group average ([1]; 3rd dose (50 μM) male, 14d): 36.106 G
Weight, group average ([1]; 3rd dose (50 μM) male, 21d): 36.43 G
Weight, group average ([1]; 3rd dose (50 μM) male, 28d): 38.348 G
Weight, group average ([1]; 3rd dose (50 μM) male, initial): 35.076 G
IC50 (A549 cell lines; 24 h): 266 µM
IC50 (A549 cell lines; 48 h): 114 µM
IC50 (A549 cell lines; 72 h): 68.8 µM
cardiac muscle: increase in the connective tissue between the muscle fibers (CD1 mice; both, CD1, mouse, 28 day): higher level compared to the 4 groups
cardiac muscle: discus intercalaris (CD1 mice; mouse): moderate/high level of erasure
kidney: severity of histopathological findings, compounds compared (CD1 mice; mouse): more severe
liver: severity of histopathological findings, compounds compared (CD1 mice; mouse): more severe

CC(=O)O[C@@H]1[C@@H]2C(=O)N(Cc3ccccc3)C(=O)[C@@H]2C=C[C@H]1Cl [compound 4]
IC50 (A549 cell lines; 24 h): 349 µM
IC50 (A549 cell lines; 48 h): 116 µM
IC50 (A549 cell lines; 72 h): 83.6 µM
